According to patent US20230000842A1, “METHODS OF TREATING CARTILAGE DISORDERS THROUGH INHIBITION OF CLK AND DYRK” (SAMUMED, LLC, priority 2019, published 2023):
Read-outs that look alike come from different tables or passages of the source.

Tests used:
[1] = target: CLK2 kinase (Homo sapiens, UniProt P49760); test: CLK2 kinase activity assay (Z-lyte FRET); type: biochemical; conditions: Z-lyte Ser/Thr 6 peptide, 60 μM ATP, 1 h at room temperature;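 further: FRET read-out as coumarin to fluorescein emission ratio, unphosphorylated peptide as 0% and phosphorylated peptide as 100% controls, duplicate reactions, non-linear regression fit of dose-response curves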
[2] = target: CLK3 kinase (Homo sapiens, UniProt P49761); test: CLK3 kinase activity assay (Z-lyte FRET); type: biochemical; conditions: Z-lyte Ser/Thr 18 peptide, 156 μM ATP, 1 h at room temperature;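 further: kinase activity read as coumarin/fluorescein emission ratio by FRET, unphosphorylated peptide as 0% and phosphorylated peptide as 100% control, values from non-linear regression of dose-response curves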
[3] = test system: primary human mesenchymal stem cells (hMSCs); test: Chondrogenesis screening using primary human mesenchymal stem cells; type: cell-based; conditions: hMSC chondrogenesis; for Emax: read-out: Max. Activity as % TGF-β3 activity; for EC50: concentration required to induce 50% levels of chondrogenesis with TGF-β3 as positive control, read-out: Conc (nM) of 50% TGF-β3 activity
Description: Representative compounds were screened using primary human mesenchymal stem cells (hMSCs) to determine their ability to induce chondrogenesis (process by which cartilage is developed).
Human Mesenchymal Stem Cell Culture: Primary human mesenchymal stem cells (hMSCs) were purchased from Lonza (Walkersville, Md.) and expanded in Mesenchymal Stem Cell Growth Media (Lonza). Cells between passage 3 and 6 were used for the experiments.
Area of nodules in each well was normalized to the average of 3 DMSO treated wells on the same plate using Excel (Microsoft Inc.). The normalized averages (fold change over DMSO) of 2 or 3 replicate wells for each compound concentration were calculated. Due to solubility limitations of some of the compounds, curve fitting was incomplete leading to inaccurate EC50 determinations.
Using TGF-β3 as a positive control, the concentration of representative compounds required to induce 50% levels of chondrogenesis is reported. In addition, the maximum activity of each compound and the respective dose that each compound reached maximum chondrogenesis activity is reported.

[4] = test system: Wnt pathway activity (SW480 colon carcinoma cells stably expressing the Sp5-Luc reporter); test: Wnt pathway activity screening assay (Sp5-Luc reporter gene assay); conditions: SW480 cells stably expressing Sp5-Luc reporter, 10-point dose-response from 10 μM, 36 to 48 hours
[5] = Homo sapiens, Mesenchymal stem cells, maximum activity relative to TGF-β3 (10 ng/mL) positive control
[6] = Homo sapiens, Mesenchymal stem cells

Chain of CLK3 kinase (P49761 whole entry): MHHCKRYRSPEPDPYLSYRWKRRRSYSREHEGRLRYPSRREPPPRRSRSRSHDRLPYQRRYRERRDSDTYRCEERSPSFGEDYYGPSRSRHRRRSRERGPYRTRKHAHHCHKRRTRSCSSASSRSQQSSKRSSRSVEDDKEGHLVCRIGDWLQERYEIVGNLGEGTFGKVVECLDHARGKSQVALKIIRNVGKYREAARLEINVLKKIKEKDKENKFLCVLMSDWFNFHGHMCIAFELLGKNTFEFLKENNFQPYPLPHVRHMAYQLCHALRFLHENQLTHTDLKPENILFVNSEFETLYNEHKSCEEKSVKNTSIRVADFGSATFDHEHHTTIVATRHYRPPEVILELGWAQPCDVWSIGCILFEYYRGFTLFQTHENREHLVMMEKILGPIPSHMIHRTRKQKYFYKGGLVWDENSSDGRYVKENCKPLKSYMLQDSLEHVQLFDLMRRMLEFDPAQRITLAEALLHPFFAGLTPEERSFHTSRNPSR
Chain of CLK2 kinase (P49760 whole entry): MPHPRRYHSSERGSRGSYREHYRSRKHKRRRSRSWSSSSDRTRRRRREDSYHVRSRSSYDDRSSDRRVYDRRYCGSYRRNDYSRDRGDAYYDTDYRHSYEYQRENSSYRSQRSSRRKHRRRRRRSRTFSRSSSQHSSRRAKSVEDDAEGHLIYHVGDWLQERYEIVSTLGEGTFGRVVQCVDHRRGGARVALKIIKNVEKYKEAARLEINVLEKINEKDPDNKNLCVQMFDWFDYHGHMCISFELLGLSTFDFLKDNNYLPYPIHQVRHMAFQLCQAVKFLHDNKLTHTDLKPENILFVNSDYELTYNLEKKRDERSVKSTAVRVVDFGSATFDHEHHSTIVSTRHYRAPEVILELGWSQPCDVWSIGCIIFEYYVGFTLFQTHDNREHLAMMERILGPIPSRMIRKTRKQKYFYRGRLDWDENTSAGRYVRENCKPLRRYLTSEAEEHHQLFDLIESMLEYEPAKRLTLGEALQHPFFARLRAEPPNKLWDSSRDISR

| EC50 [1] [nM] | EC50 [2] [nM] | EC50 ([4]; Homo sapiens, SW480, Table 4) [nM] | EC50 [3, 6] [nM] | EC50 [3] [nM] | EC50 ([4]; Table 4) [nM] | Structure (SMILES) | Emax [3, 5] [%] | Max. Activity as % TGF-β3 activity ([3]; maximum activity relative to TGF-β3 (10 ng/mL) positive control) [%] |
| --- | --- | --- | --- | --- | --- | --- | --- | --- |
| 2 | 28 | 345 | – | – | – | O=C(CC1CCNCC1)Nc1cncc(-c2cc3c(-c4nc5c(-c6cccc(F)c6)ccnc5[nH]4)n[nH]c3cn2)c1 [compound 128] | 54.7 | – |
| 53 | 164 | 23 | 100 | – | – | O=C(Cc1ccccc1)Nc1cncc(-c2ccc3[nH]nc(-c4nc5c(-c6cccc(F)c6)cncc5[nH]4)c3c2)c1 [compound 129] | 124 | – |
| 13 | 160 | 1.2 | 30 | – | – | CC(C)Nc1cncc(-c2cnc3[nH]nc(-c4nc5c(-c6cccc(F)c6)cncc5[nH]4)c3c2)c1 [compound 131] | 504 | – |
| 1 | 12 | 638 | 10 | – | – | CN(C)c1cncc(-c2ccc3[nH]nc(-c4nc5c(-c6cccc(F)c6)cncc5[nH]4)c3n2)c1 [compound 132] | 154 | – |
| 2 | 37 | 659 | 10 | – | – | CN(C)c1cncc(-c2ccc3[nH]nc(-c4nc5c(-c6cccc(F)c6)ccnc5[nH]4)c3n2)c1 [compound 133] | 83.8 | – |
| 6 | 76 | 40.9 | – | – | – | CCNCc1cncc(-c2cnc3[nH]nc(-c4nc5c(-c6cccc(F)c6)cccc5[nH]4)c3c2)c1 [compound 134] | 98.7 | – |
| 4 | 41 | 82.2 | 100 | – | – | CN(C)Cc1cncc(-c2cc3c(-c4nc5c(-c6cccc(F)c6)cccc5[nH]4)n[nH]c3cn2)c1 [compound 135] | 311 | – |
| 2 | 109 | 637 | 30 | – | – | CN(C)Cc1cncc(-c2ccc3[nH]nc(-c4nc5c(-c6cccc(F)c6)cccc5[nH]4)c3n2)c1 [compound 136] | 84.6 | – |
| 1 | 7 | 13 | 30 | – | – | CN(C)Cc1cncc(-c2cnc3[nH]nc(-c4nc5c(-c6cccc(F)c6)cncc5[nH]4)c3c2)c1 [compound 137] | 183 | – |
| 1 | 197 | 1050 | 30 | – | – | CN(C)Cc1cncc(-c2ccc3[nH]nc(-c4nc5c(-c6cccc(F)c6)nccc5[nH]4)c3n2)c1 [compound 138] | 75.6 | – |
| 3 | 79 | 1050 | – | – | – | CN(C)Cc1cncc(-c2ccc3[nH]nc(-c4nc5c(-c6cccc(F)c6)cncc5[nH]4)c3n2)c1 [compound 139] | 16.7 | – |
| 9 | 33 | 26.4 | – | 30 | – | Fc1cccc(-c2cncc3[nH]c(-c4n[nH]c5ccc(-c6cncc(CN7CCC(F)(F)C7)c6)cc45)nc23)c1 [compound 141] | 102 | – |
| 21 | 90 | – | – | 10 | 19.1 | Fc1cccc(-c2cncc3[nH]c(-c4n[nH]c5ccc(-c6cncc(CN7CCC(F)(F)C7)c6)cc45)nc23)c1 [compound 142] | – | 85.77 |
| 17 | 45 | 11 | – | – | – | Oc1cncc(-c2ccc3[nH]nc(-c4nc5c(-c6cccc(F)c6)cccc5[nH]4)c3c2)c1 [compound 143] | 52.2 | – |
| 5 | 93 | 460 | 6.86 | – | – | Oc1cncc(-c2ccc3[nH]nc(-c4nc5c(-c6cccc(F)c6)nccc5[nH]4)c3n2)c1 [compound 144] | 56.7 | – |
| 5 | 74 | > 10000 | 20.6 | – | – | Oc1cncc(-c2ccc3[nH]nc(-c4nc5c(-c6cccc(F)c6)cncc5[nH]4)c3n2)c1 [compound 145] | 53.6 | – |
| 5 | 113 | 375 | 2.29 | – | – | Oc1cncc(-c2ccc3[nH]nc(-c4nc5c(-c6cccc(F)c6)ccnc5[nH]4)c3n2)c1 [compound 146] | 59.3 | – |
| 9 | 493 | 31.3 | 300 | – | – | COc1cncc(-c2cc3c(-c4nc5c(-c6cccc(F)c6)cncc5[nH]4)n[nH]c3cn2)c1 [compound 147] | 140 | – |

| EC50 [1] [nM] | EC50 [2] [nM] | EC50 ([4]; Homo sapiens, SW480, Table 4) [nM] | EC50 [3, 6] [nM] | EC50 [3] [nM] | EC50 ([4]; Table 4) [nM] | Structure (SMILES) | Emax [3, 5] [%] | Max. Activity as % TGF-β3 activity ([3]; maximum activity relative to TGF-β3 (10 ng/mL) positive control) [%] |
| --- | --- | --- | --- | --- | --- | --- | --- | --- |
| 4 | 124 | 120 | 20.6 | – | – | COc1cncc(-c2ccc3[nH]nc(-c4nc5c(-c6cccc(F)c6)nccc5[nH]4)c3n2)c1 [compound 148] | 60.4 | – |
| 11 | 93 | 30.2 | 100 | – | – | Fc1cccc(-c2ccnc3[nH]c(-c4n[nH]c5ncc(-c6cn[nH]c6)cc45)nc23)c1 [compound 153] | 110 | – |
| 14 | 138 | 11.1 | 30 | – | – | Cn1cc(-c2cnc3[nH]nc(-c4nc5c(-c6cccc(F)c6)nccc5[nH]4)c3c2)cn1 [compound 155] | 74.9 | – |
| 10 | 1800 | 10 | 100 | – | – | Cn1cc(-c2cc3c(-c4nc5c(-c6cccc(F)c6)nccc5[nH]4)n[nH]c3cn2)cn1 [compound 156] | 110 | – |
| 2 | 416 | 70 | 100 | – | – | Cn1cc(-c2cc3c(-c4nc5c(-c6cccc(F)c6)cncc5[nH]4)n[nH]c3cn2)cn1 [compound 157] | 71 | – |
| 3 | 83 | 150 | 10 | – | – | Cc1ncc(-c2ccc3[nH]nc(-c4nc5c(-c6cccc(F)c6)cccc5[nH]4)c3n2)n1C [compound 158] | 112 | – |
| 1 | 34 | 12.5 | 100 | – | – | Cc1ncc(-c2cnc3[nH]nc(-c4nc5c(-c6cccc(F)c6)nccc5[nH]4)c3c2)n1C [compound 159] | 152 | – |
| 3 | 37 | 11 | 300 | – | – | CCC(=O)Nc1cncc(-c2cnc3[nH]nc(-c4nc5c(-c6ccc(F)cc6)cncc5[nH]4)c3c2)c1 [compound 160] | 143 | – |
| 17 | 105 | 4 | 100 | – | – | CC(C)(C)C(=O)Nc1cncc(-c2ccc3[nH]nc(-c4nc5c(-c6ccc(F)cc6)cncc5[nH]4)c3c2)c1 [compound 161] | 128 | – |
| 8 | 9840 | 2730 | – | – | – | CC(C)(C)C(=O)Nc1cncc(-c2ccc3[nH]nc(-c4nc5c(-c6ccc(F)cc6)cncc5[nH]4)c3n2)c1 [compound 162] | 41.8 | – |
| 32 | 75 | 57 | 100 | – | – | CC(C)CC(=O)Nc1cncc(-c2ccc3[nH]nc(-c4nc5c(-c6ccc(F)cc6)cncc5[nH]4)c3c2)c1 [compound 163] | 125 | – |
| 28 | 87 | 5.7 | 100 | – | – | O=C(Nc1cncc(-c2ccc3[nH]nc(-c4nc5c(-c6ccc(F)cc6)cncc5[nH]4)c3c2)c1)C1CCC1 [compound 164] | 203 | – |
| 2 | 20 | 8.8 | 100 | – | – | Nc1cncc(-c2ccc3[nH]nc(-c4nc5c(-c6ccccc6F)nccc5[nH]4)c3c2)c1 [compound 165] | 61.9 | – |
| 3 | 209 | 1070 | 30 | – | – | Nc1cncc(-c2ccc3[nH]nc(-c4nc5c(-c6ccccc6F)cccc5[nH]4)c3n2)c1 [compound 166] | 81.8 | – |
| 4 | 19 | 2 | 30 | – | – | Nc1cncc(-c2ccc3[nH]nc(-c4nc5c(-c6ccccc6F)ccnc5[nH]4)c3c2)c1 [compound 167] | 113 | – |
| 33 | 76 | 12.3 | 300 | – | – | Nc1cncc(-c2cnc3[nH]nc(-c4nc5c(-c6ccccc6F)ccnc5[nH]4)c3c2)c1 [compound 168] | 59.9 | – |
| 1 | 50 | > 10000 | 10 | – | – | Nc1cncc(-c2ccc3[nH]nc(-c4nc5c(-c6ccccc6F)nccc5[nH]4)c3n2)c1 [compound 169] | 108 | – |
